Patent publication US7485434B2, “Method for screening compounds for those that modulate transducers of regulated CREB activity” (The Salk Institute for Biological Studies, priority 2005, dated 2009)

Key:
[1] = tested on: AMPK (AMP-activated protein kinase); assay: In vitro kinase assay of GST-TORC2 (161-181) with purified AMPK; type: biochemical; settings: 300 μM AMP
Text: Specifically, FIG. 20A illustrates the relative phosphorylation of wild-type or Ser171 Ala mutant recombinant GST-TORC2 (161-181) compared to GST only or optimal AMPK peptide substrate (SAMS) by activated AMPK in vitro. Addition of AMP to reactions is shown. The relative incorporation of γ^32P-ATP by each substrate is indicated.
Recombinant GST-TORC2 (161 -181) wild-type and Ser171 Ala proteins were phosphorylated in vitro with 100 mU purified AMPK (AMP-activated protein kinase) (Upstate Biotech) ±300 μM AMP according to the manufacturer's instructions. Following 15 mm. incubation with γ-^32P-ATP, relative ^32P incorporation was measured by scintillation. GST substrates and SAMS peptide were used at 3 μM in each reaction.
By contrast with SIK, ATP depletion appears to be uniquely sensed by AMPK, the founding member of this family (see Sakamoto et al., 2004; Lizcano et al., 2004; Bananjee et al., 2004; and Radzuik et al., 2003). The presence of a consensus AMPK phosphorylation site (Ser171) that modulates TORC2 activity in liver prompted examination of whether AMPK inhibits gluconeogenesis via phosphorylation of TORC2 in response to ATP depletion. Activated AMPK phosphorylated wild-type, but not Ser171Ala mutant GST-TORC2 (161-181) peptide in vitro (see FIG. 20A).

[2] = tested on: CREB-dependent EVX-1 promoter; assay: Transient transfection assay of HIT insulinoma cells with CREB-dependent EVX-1 luciferase reporter; type: cell-based, Hamster; settings: for induction of CREB-dependent EVX-1 promoter: single stimulus (KCl 45 mM or forskolin), 6 hr
Experimental: Specifically, FIG. 1A summarizes the results of a transient transfection assay of HIT insulinoma cells transfected with the CREB-dependent EVX-1 luciferase reporter. Cells were treated with KCl (45 mM) and/or forskolin (10 nM) for six hours as indicated.
HEK293T, HIT or PC 12 cells were co-transfected with EVX or GAL4-LUC reporter plasmid, RSV-beta galactosidase and FLAG-TORC and/or SIK2 expression plasmids overnight using Lipofectamine 2000 (Invitrogen, Carlsbad, Calif.). DNA/lipid complexes were washed the next day and extracts prepared 24 h (293T and PC 12) or 40 hr (HITs) after transfection. […] Luciferase values were normalized to β-gal activity from co-transfected RSV-beta galactosidase activity in the corresponding sample.
Hamster insulinoma (HIT) cells were employed to test the relative effects of cAMP and calcium signals on CREB activity. Opening of voltage-sensitive L-type calcium channels in response to KC1 depolarization induced the CREB-dependent EVX-1 promoter (Conknight et al., 2003b) 5-fold in HIT cells, whereas addition of cAMP agonist stimulated the reporter 10-fold (see FIG. 1A). […] Consistent with the effects of calcium channel activity on the EVX-1 promoter, treatment with high glucose (20 mM) induced the expression of the endogenous CREB target gene NR4A2 5-fold in MIN6 insulinoma cells; and co-stimulation with glucose plus exendin-4, an analogue of the incretin hormone GLP-1, enhanced NR4A2 mRNA levels 35-fold (see FIG. 1B).

GAL4-CREB = GAL4-CREB transient GAL4 luciferase reporter assay in HIT cells; type: cell-based, Hamster
[3] = tested on: CREB:CBP complex (KID:KIX interaction); assay: Mammalian two-hybrid assay GAL4-KID / KIX-VP16 in HIT cells; type: cell-based, Hamster
TORC2 [4] = assay: EVX-1 reporter assay in HIT cells co-transfected with TORC2 expression vector; type: cell-based, Hamster
Experimental: Cells were treated with forskolin or KCl as indicated.

phospho (Ser133) CREB = assay: Western blot of phospho (Ser133) CREB levels in HIT cells; type: cell-based, Hamster; settings: forskolin 10 μM or KCl 45 mM
Experimental: FIG. 1C is a Western blot assay of phospho (Ser133) CREB levels in HIT cells following treatment with KCl (45 mM), forskolin (10 μM), or both together for 30 minutes.
FIG. 9 illustrates the time course (in minutes) of CREB Ser133 phosphorylation in HIT cells following treatment with forskolin (10 μM) or KCl (45 mM). […] Immunoreactive bands correspond to phospho (Ser133) CREB (top) and phospho (Ser63) ATF1 (bottom).
Western blot analyses were conducted on whole cell, cytoplasmic and nuclear extracts with the following rabbit polyclonal antisera: phospho (Ser133) specific affinity purified 5322 and phospho (Ser133) specific antibody from Rockland Immunochemicals, Gilbertsville, Pa.), non-discriminating CREB (244), phosphor (Ser171) CREB, TORC2, pan-TORC, SIK1 and SIK2. 14-3-3 and Hsp90 antibodies were from Santa Cruz (Santa Cruz, Calif.). FLAG-M2 (Sigma) and GAL4 (Santa Cruz) monoclonal antibodies were used at 1:2000 and 1:1000 dilutions, respectively. For quantitative western blotting, goat anti-mouse-800 nm fluorophore conjugate to detect FLAG-M2 was used at 1:40,000 dilution according to manufacturer's instructions (Licor) prior to analysis using the Odyssey detection system. GST-pulldowns were performed as described (Asahara et al., 2001). […]

SIK1 = SIK1 mRNA levels in primary rat hepatocytes; type: cell-based
Text: FIG. 18F summarizes the effect of FSK treatment on SIK1 mRNA levels in primary rat hepatocytes. Cells were infected with control (GFP) or dominant negative A-CREB adenovirus as indicated.
Based on the ability of CHX to disrupt TORC2 Ser171 phosphorylation, it was hypothesized that glucagon induces the expression of an inhibitory kinase during the attenuation period. […] Indeed, fasting induced SIK1 mRNA and protein levels in liver 4-fold relative to feeding conditions, whereas expression of other SIK family members (SIK2 and SIK3) was unaffected (see FIGS. 18D and 18E).

TORC:14-3-3 complexes = assay: Co-immunoprecipitation of TORC with endogenous 14-3-3 proteins; type: cell-based; settings: basal and cAMP stimulated conditions; CsA 5 μM, OA 100 nM
Text: FIGS. 5A-5D illustrate that 14-3-3 proteins associate with and repress TORC activity. Specifically, FIG. 5A, top panel, presents the results of a coimmunoprecipitation assay of Flag-TORC1 with endogenous 14-3-3 proteins in HEK293T cells. The effect of forskolin (F) treatment on the TORC 1: 14-3-3 association is shown. […] FIG. 5A, bottom left panel, is a Western blot assay of 14-3-3 proteins recovered from TORC or control 1 gG immunoprecipitates, illustrating the effect of forskolin treatment on endogenous TORC: 14-3-3 complexes in PC12 and HEK293T cells. Input levels of 14-3-3 and TORC proteins are shown. […] FIG. 5A, bottom right panel, illustrates the kinetics of TORC2 dissociation from endogenous 14-3-3 proteins in response to forskolin treatment of HEK293T cells. The levels of Flag-tagged TORC 2 (FLAG-T2) recovered from flag immunoprecipitates at each time point is shown below.
Rabbit pan-TORC (raised against 1-42 of human TORC1) and TORC2 selective rabbit polyclonal antiserum (raised against amino acids 454-607 of mouse TORC2) were generated as previously described (Conkright et al., 2003a)). Whole cell protein was extracted from cultured HEK293T, HIT, and MIN6 cells in Laemmli SDS sample buffer. Alternatively, whole cell protein was extracted from liver tissue or primary hepatocytes in SDS-urea-lysis buffer. […]

CREB = CREB Ser133 phosphorylation in liver after IP injection (histochemical and Western blot); type: in vivo; settings: mice; intraperitoneal administration
primary rat hepatocytes = assay: Glucose output from primary rat hepatocytes; type: cell-based; settings: FSK/DEX
Experimental: FIG. 17C summarizes the effect of TORC on glucose output from primary rat hepatocytes in response to fasting and feeding signals. Cells were infected with TORC1, TORC2, or control GFP adenovirus and then treated with FSK plus dexamethasone (FSK/DEX) for four hours. The effect of insulin on glucose output is shown.
Rat primary hepatocytes were prepared from 200-300g of Sprague-Dawley rats by collagenase perfusion method as described previously (see Koo et al., 2004). 1×10^6 cells were plated in 6 well plates with medium 199 (Invitrogen, Carlsbad, Calif.) supplemented by 10% FBS, 10 units/ml penicillin, 10 μg/ml streptomycin, and 10 nM dexamethasone for 3-6 hours. After attachment, cells were infected with adenoviruses for 16 hours. Subsequently, cells were maintained in medium 199 without FBS and dexamethasone for 24 hours (for cDNA expression adenoviruses) or 48 hours (for RNAi adenoviruses) and […] forskolin or 100 nM glucagon for 2 hours unless noted otherwise. For experiments with cycloheximide, 10 μg/ml cycloheximide was added 30 minutes prior to the addition of 100 nM glucagon.
The ability of TORC2 to modulate gluconeogenic gene expression in hepatocytes exposed to cAMP agonist is consistent with the proposal that this coactivator modulates glucose output from the liver in response to fasting signals.

TORC2 [5] = assay: TORC2 localization, Ser171 phosphorylation and promoter recruitment in liver after IP injection; type: in vivo; settings: mice; IP administration

`Nc1ncnc2c1ncn2[C@@H]1O[C@H](COP(=O)(O)O)[C@@H](O)[C@H]1O` [AMP] was tested, and the “phosphorylation of TORC by AMPK” value [1] was “induced”.

`[Cl-].[K+]` [KCl] was tested, and the “induction of CREB-dependent EVX-1 promoter” value [2] was 5 fold, the “induction of GAL4 reporter activity via GAL4-CREB” value (GAL4-CREB; added individually) was 2 fold and the “response of truncated GAL4-CREBΔbZIP polypeptide” value (GAL4-CREB; lacking bZIP domain (aa. 284-341)) was “no induction”. For the same compound, the “effect on KID:KIX interaction” value ([3]; KCl depolarization alone) was “had no effect”, the “further potentiation of EVX-1 reporter in TORC2 over-expressing cells” value (TORC2 [4]) was 30 fold and the “levels of CREB Ser133 phosphorylation” value (phospho (Ser133) CREB) was “increased levels of CREB Ser133 phosphorylation”.

With `C=C[C@@]1(C)CC(=O)[C@]2(O)[C@@]3(C)[C@@H](O)CCC(C)(C)[C@@H]3[C@H](O)[C@H](OC(C)=O)[C@@]2(C)O1` [forskolin, Forskolin] the “stimulation of CREB activity (EVX-1 reporter)” value ([2]; co-stimulation with both forskolin and KCl) was 80 fold, the “induction of CREB-dependent EVX-1 promoter” value [2] was 10 fold and the “induction of GAL4 reporter activity via GAL4-CREB” value (GAL4-CREB; KCl and forskolin in combination) was 22 fold. For the same compound, the “induction of GAL4 reporter activity via GAL4-CREB” value (GAL4-CREB; added individually) was 5 fold, the “stimulation of KID:KIX interaction (GAL4 luciferase reporter)” value ([3]; 6 hours) was 20 fold and the “further potentiation of EVX-1 reporter in TORC2 over-expressing cells” value (TORC2 [4]) was 25 fold. The “induction of SIK1 mRNA levels” value (SIK1) was 20 fold.

`C=C1[C@@H](O)[C@@H]2O[C@]3(CC[C@H](/C=C/[C@@H](C)[C@@H]4CC(C)=C[C@@]5(O[C@H](C[C@@](C)(O)C(=O)O)CC[C@H]5O)O4)O3)CC[C@H]2O[C@@H]1[C@@H](O)C[C@H](C)[C@H]1O[C@@]2(CCCCO2)CC[C@H]1C` [okadaic acid] was tested, and the “effect of phosphatase inhibitor on TORC:14-3-3 complex formation” value (TORC:14-3-3 complexes) was “had no effect on this interaction”.

With insulin the “CREB Ser133 phosphorylation in liver” value (CREB) was “comparable effects on Ser133 phosphorylation”, the “effect on glucose output from TORC over-expressing cells” value (primary rat hepatocytes) was “disrupted” and the “TORC2 phosphorylation at Ser171 in liver” value (TORC2 [5]) was “highly phosphorylated at Ser171”. For the same compound, the “nuclear translocation of hepatic TORC2” value (TORC2 [5]) was “did not stimulate nuclear entry of TORC2”.
